Data from ChEMBL document CHEMBL4616657, “Aromatic Esters of the Crinane Amaryllidaceae Alkaloid Ambelline as Selective Inhibitors of Butyrylcholinesterase” (J Nat Prod, 2020).

Columns and labels:
Acetylcholinesterase [1] = target: T1, Acetylcholinesterase (Homo sapiens, UniProt P22303); test: Inhibition of human AChE using acetylthiocholine iodide as substrate at 100 uM measured for 1 min by spectrophotometric based Ellman's method relative to control
Cholinesterase [2] = target: T2, Cholinesterase (Homo sapiens, UniProt P06276); test: Inhibition of human BuChE using butyrylthiocholine iodide as substrate at 100 uM measured for 1 min by spectrophotometric based Ellman's method relative to control
T2 sequence (P06276 whole entry): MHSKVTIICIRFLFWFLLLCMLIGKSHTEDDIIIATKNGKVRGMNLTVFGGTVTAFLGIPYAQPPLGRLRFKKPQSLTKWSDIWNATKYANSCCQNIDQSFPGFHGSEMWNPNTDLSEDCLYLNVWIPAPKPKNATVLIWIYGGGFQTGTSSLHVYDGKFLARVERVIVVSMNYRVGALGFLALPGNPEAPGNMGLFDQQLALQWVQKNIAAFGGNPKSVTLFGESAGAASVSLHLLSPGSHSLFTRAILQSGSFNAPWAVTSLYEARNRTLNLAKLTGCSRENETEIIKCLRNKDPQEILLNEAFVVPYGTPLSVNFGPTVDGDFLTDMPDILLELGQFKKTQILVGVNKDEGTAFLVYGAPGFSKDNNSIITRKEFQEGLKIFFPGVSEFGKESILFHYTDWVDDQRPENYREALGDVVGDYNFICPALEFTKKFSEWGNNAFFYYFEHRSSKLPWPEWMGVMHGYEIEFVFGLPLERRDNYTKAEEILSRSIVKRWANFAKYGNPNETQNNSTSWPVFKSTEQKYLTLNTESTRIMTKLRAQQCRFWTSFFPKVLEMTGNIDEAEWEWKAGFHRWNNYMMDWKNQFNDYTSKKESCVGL

Homo sapiens = species on record: Homo sapiens; test: Selectivity index, ratio of IC50 for inhibition of human AChE using acetylthiocholine iodide as substrate to inhibition of human BuChE using butyrylthiocholine iodide as substrate
Acetylcholinesterase [3] = target: T1, Acetylcholinesterase; test: Inhibition of human AChE using acetylthiocholine iodide as substrate measured for 1 min by spectrophotometric based Ellman's method
Cholinesterase [4] = target: T2, Cholinesterase; test: Inhibition of human BuChE using butyrylthiocholine iodide as substrate measured for 1 min by spectrophotometric based Ellman's method
[5] = Effective permeability of the compound at pH 7.4 at 100 uM measured after 3 to 6 hrs by PAMPA assay; format: ADME; details: read-out: Peff
Cholinesterase [6] = target: Cholinesterase (Equus caballus, UniProt P81908); test: Inhibition of horse serum BuChE using butyrylthiocholine chloride as substrate by spectrophotometric based Ellman's method
Cholinesterase (Equus caballus, UniProt P81908), sequence (P81908 whole entry): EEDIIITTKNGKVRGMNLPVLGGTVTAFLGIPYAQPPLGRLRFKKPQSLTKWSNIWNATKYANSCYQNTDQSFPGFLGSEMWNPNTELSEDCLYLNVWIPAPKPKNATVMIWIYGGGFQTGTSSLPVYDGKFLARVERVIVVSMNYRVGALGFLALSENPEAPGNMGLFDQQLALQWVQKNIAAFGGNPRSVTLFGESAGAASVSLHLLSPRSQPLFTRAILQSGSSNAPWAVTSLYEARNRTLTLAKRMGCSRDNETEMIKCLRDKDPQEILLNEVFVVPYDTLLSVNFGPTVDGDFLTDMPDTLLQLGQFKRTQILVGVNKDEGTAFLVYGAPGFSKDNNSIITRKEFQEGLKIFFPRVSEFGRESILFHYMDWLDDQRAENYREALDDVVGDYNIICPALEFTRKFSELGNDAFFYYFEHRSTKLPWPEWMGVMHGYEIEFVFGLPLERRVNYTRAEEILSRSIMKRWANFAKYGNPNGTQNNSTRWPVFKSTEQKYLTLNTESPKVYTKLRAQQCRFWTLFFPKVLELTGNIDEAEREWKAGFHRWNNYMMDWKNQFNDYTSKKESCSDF

T1 sequence (P22303 whole entry): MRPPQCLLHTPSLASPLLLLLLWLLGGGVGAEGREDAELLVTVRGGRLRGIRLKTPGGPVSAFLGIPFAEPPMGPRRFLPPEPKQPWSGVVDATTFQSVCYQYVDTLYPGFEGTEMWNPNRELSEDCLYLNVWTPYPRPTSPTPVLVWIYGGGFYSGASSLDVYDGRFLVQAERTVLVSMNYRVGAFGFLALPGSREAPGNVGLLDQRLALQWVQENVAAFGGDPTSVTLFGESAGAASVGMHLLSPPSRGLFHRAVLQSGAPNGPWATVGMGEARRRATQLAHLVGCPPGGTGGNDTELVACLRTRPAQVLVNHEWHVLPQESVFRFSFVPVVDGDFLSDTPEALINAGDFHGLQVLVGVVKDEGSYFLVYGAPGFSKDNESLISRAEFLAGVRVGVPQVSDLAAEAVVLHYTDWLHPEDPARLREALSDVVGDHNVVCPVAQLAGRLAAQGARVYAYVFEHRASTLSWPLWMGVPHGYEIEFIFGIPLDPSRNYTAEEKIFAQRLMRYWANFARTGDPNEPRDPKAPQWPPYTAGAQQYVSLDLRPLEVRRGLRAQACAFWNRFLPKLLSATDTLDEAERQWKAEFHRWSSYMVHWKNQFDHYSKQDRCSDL

SMILES | inhibition (Acetylcholinesterase [1]) [%] | inhibition (Cholinesterase [2]) [%] | Ratio IC50 (Homo sapiens) | IC50 (Acetylcholinesterase [3]) [µM] | IC50 (Cholinesterase [4]) [µM] | Papp at 100 µM [5] [×10⁻⁶ cm/s] | IC50 (Cholinesterase [6]) [µM]
COc1c2c(cc3c1OCO3)[C@]13C=C[C@H](OC)C[C@@H]1[N@](C2)C[C@H]3OC(=O)c1ccc(C)cc1 | 28 | 68 | > 4 | – | – | – | –
COc1c2c(cc3c1OCO3)[C@]13C=C[C@H](OC)C[C@@H]1[N@](C2)C[C@H]3OC(=O)c1ccccc1C | 51 | 99 | 195 | 55 | 0.28 | 19 | –
COc1c2c(cc3c1OCO3)[C@]13C=C[C@H](OC)C[C@@H]1[N@](C2)C[C@H]3OC(=O)c1cccc([N+](=O)[O-])c1 | 58 | 53 | 0.6 | – | – | – | –
COc1c2c(cc3c1OCO3)[C@]13C=C[C@H](OC)C[C@@H]1N(C2)C[C@H]3OC(=O)c1ccccc1 | – | – | – | > 100 | 3.8 | 12 | –
CCOc1cc(OCC)cc(C(=O)O[C@@H]2C[N@@]3Cc4c(cc5c(c4OC)OCO5)[C@@]24C=C[C@H](OC)C[C@H]34)c1 | 30 | 42 | – | > 100 | > 100 | – | –
COc1ccc(C(=O)O[C@@H]2C[N@@]3Cc4c(cc5c(c4OC)OCO5)[C@@]24C=C[C@H](OC)C[C@H]34)cc1OC | 15 | 33 | – | – | – | – | –
CCCCC(=O)O[C@@H]1C[N@@]2Cc3c(cc4c(c3OC)OCO4)[C@@]13C=C[C@H](OC)C[C@H]23 | 7 | 39 | – | > 100 | > 100 | – | –
COc1ccccc1C(=O)O[C@@H]1C[N@@]2Cc3c(cc4c(c3OC)OCO4)[C@@]13C=C[C@H](OC)C[C@H]23 | 31 | 99 | > 235 | – | – | – | –
C[C@@H]([C@H]1CC[C@@]2(C)[C@@H]3CC[C@@H]4C(=CC3=CC[C@]12C)C=C[C@H](NC(=O)c1ccccc1)C4(C)C)N(C)C | – | – | – | – | – | – | 1.7
CO[C@@H]1C=C[C@@]23c4cc5c(cc4CN(C[C@@H]2O)[C@H]3C1)OCO5 [(+)-HAEMANTHAMINE] | 6 | 13 | – | > 100 | > 100 | – | –
COc1c2c(cc3c1OCO3)[C@]13C=C[C@H](OC)C[C@@H]1[N@](C2)C[C@H]3OC(=O)C(C)C | 3 | 12 | – | – | – | – | –
COc1c2c(cc3c1OCO3)[C@]13C=C[C@H](OC)C[C@@H]1N(C2)C[C@H]3OC(=O)c1ccoc1 | – | – | – | > 100 | 32 | – | –
COc1c2c(cc3c1OCO3)[C@]13C=C[C@H](OC)C[C@@H]1N(C2)C[C@H]3OC(=O)c1cccc2ccccc12 | – | – | – | > 100 | 0.1 | 9 | –
COc1c2c(cc3c1OCO3)[C@]13C=C[C@H](OC)C[C@@H]1[N@](C2)C[C@H]3OC(=O)c1ccc2ccccc2c1 | 29 | 77 | 5.2 | – | – | – | –
COc1c2c(cc3c1OCO3)[C@]13C=C[C@H](OC)C[C@@H]1N(C2)C[C@H]3OC(=O)c1cccc(C)c1 | – | – | – | > 100 | 0.86 | 8 | –
COc1c2c(cc3c1OCO3)[C@]13C=C[C@H](OC)C[C@@H]1[N@](C2)C[C@H]3OC(=O)c1cccc(C)c1 | 41 | 98 | > 116 | – | – | – | –
COc1ccc(C(=O)O[C@@H]2C[N@@]3Cc4c(cc5c(c4OC)OCO5)[C@@]24C=C[C@H](OC)C[C@H]34)cc1 | 26 | 32 | – | > 100 | > 100 | – | –
COc1c2c(cc3c1OCO3)[C@]13C=C[C@H](OC)C[C@@H]1N(C2)C[C@H]3OC(=O)c1ccc(C)cc1 | – | – | – | > 100 | 28 | – | –
COc1c2c(cc3c1OCO3)[C@]13C=C[C@H](OC)C[C@@H]1[N@](C2)C[C@H]3OC(=O)c1ccc([N+](=O)[O-])cc1 | 31 | 37 | – | > 100 | > 100 | – | –

SMILES | inhibition (Acetylcholinesterase [1]) [%] | inhibition (Cholinesterase [2]) [%] | Ratio IC50 (Homo sapiens) | IC50 (Acetylcholinesterase [3]) [µM] | IC50 (Cholinesterase [4]) [µM] | Papp at 100 µM [5] [×10⁻⁶ cm/s] | IC50 (Cholinesterase [6]) [µM]
COc1cccc(C(=O)O[C@@H]2C[N@@]3Cc4c(cc5c(c4OC)OCO5)[C@@]24C=C[C@H](OC)C[C@H]34)c1 | 25 | 91 | > 16 | – | – | – | –
COc1ccc(C(=O)O[C@@H]2CN3Cc4c(cc5c(c4OC)OCO5)[C@@]24C=C[C@H](OC)C[C@H]34)cc1OC | – | – | – | > 100 | > 100 | – | –
COc1c2c(cc3c1OCO3)[C@]13C=C[C@H](OC)C[C@@H]1[N@](C2)C[C@H]3OC(=O)c1ccccc1[N+](=O)[O-] | 75 | 97 | 23 | – | – | – | –
COc1c2c(cc3c1OCO3)[C@]13C=C[C@H](OC)C[C@@H]1[N@](C2)C[C@H]3OC(=O)c1ccco1 | 12 | 49 | – | – | – | – | –
COc1c2c(cc3c1OCO3)[C@]13C=C[C@H](OC)C[C@@H]1[N@](C2)C[C@H]3O | 4 | 8 | – | > 100 | > 100 | – | –
COc1c2c(cc3c1OCO3)[C@]13C=C[C@H](OC)C[C@@H]1N(C2)C[C@H]3OC(=O)c1cccc([N+](=O)[O-])c1 | – | – | – | 48 | 81 | – | –
COc1c2c(cc3c1OCO3)[C@]13C=C[C@H](OC)C[C@@H]1N(C2)C[C@H]3OC(=O)c1ccc2ccccc2c1 | – | – | – | > 100 | 14 | – | –
C[C@@H]([C@H]1[C@H](O)C[C@@]2(C)[C@@H]3CC[C@H]4C(C)(C)C(=O)C=C[C@@]45C[C@@]35CC[C@]12C)N(C)C | – | – | – | – | – | – | 1.1
COc1c2c(cc3c1OCO3)[C@]13C=C[C@H](OC)C[C@@H]1N(C2)C[C@H]3OC(=O)C(C)C | – | – | – | > 100 | > 100 | – | –
COc1c2c(cc3c1OCO3)[C@]13C=C[C@H](OC)C[C@@H]1[N@](C2)C[C@H]3OC(C)=O | 4 | 28 | – | – | – | – | –
COc1c2c(cc3c1OCO3)[C@]13C=C[C@H](OC)C[C@@H]1N(C2)C[C@H]3OC(C)=O | – | – | – | > 100 | > 100 | – | –
COc1c2c(cc3c1OCO3)[C@]13C=C[C@H](OC)C[C@@H]1[N@](C2)C[C@H]3OC(=O)c1ccoc1 | 12 | 61 | 1.9 | – | – | – | –
COc1c2c(cc3c1OCO3)[C@]13C=C[C@H](OC)C[C@@H]1[N@](C2)C[C@H]3OC(=O)c1cccc2ccccc12 | 21 | 96 | > 1000 | – | – | – | –
CCC(=O)O[C@@H]1C[N@@]2Cc3c(cc4c(c3OC)OCO4)[C@@]13C=C[C@H](OC)C[C@H]23 | 15 | 16 | – | > 100 | > 100 | – | –
COc1c2c(cc3c1OCO3)[C@]13C=C[C@H](OC)C[C@@H]1N(C2)C[C@H]3OC(=O)c1ccccc1[N+](=O)[O-] | – | – | – | 54 | 2.3 | 12 | –
COc1c2c(cc3c1OCO3)[C@]13C=C[C@H](OC)C[C@@H]1[N@](C2)C[C@H]3OC(=O)c1ccccc1 | 25 | 97 | > 26 | – | – | – | –
COc1cccc(C(=O)O[C@@H]2CN3Cc4c(cc5c(c4OC)OCO5)[C@@]24C=C[C@H](OC)C[C@H]34)c1 | – | – | – | > 100 | 6 | – | –
COc1ccccc1C(=O)O[C@@H]1CN2Cc3c(cc4c(c3OC)OCO4)[C@@]13C=C[C@H](OC)C[C@H]23 | – | – | – | > 100 | 0.43 | 12 | –
COc1c2c(cc3c1OCO3)[C@]13C=C[C@H](OC)C[C@@H]1N(C2)C[C@H]3OC(=O)c1ccco1 | – | – | – | > 100 | > 100 | – | –
